Measured values taken from US20220202832A1, “ALLOPREGNANOLONE COMPOSITIONS AND USES THEREOF” (The Regents of the University of California, priority 2019, published 2022).
“Also recorded” adds a separate entry of the source. Like-named read-outs stand apart in the source and are kept apart here.

Assays:
[1] = intranasal; cited from earlier work
motor function of mice = experiment: horizontal screen test (motor impairment); format: in vivo; conditions: for animals that fell from the grid: intranasal 1 mg/kg; for motor function in the horizontal screen test, in words: intranasal, doses with comparable antiseizure activity
Procedure: At various times after intranasal administration, mice were placed on a horizontally oriented grid (consisting of parallel 1.5-mm diameter rods situated 1 cm apart) for 2-3 s and the grid was inverted and held approximately 30-40 cm above a padded surface for a maximum of 60 s. If the animal fell from the grid, the latency from the time of inversion to the time of fall was recorded.

[2] = system: PTZ-induced seizures (seizure threshold); experiment: timed intravenous PTZ seizure threshold test; format: in vivo, mice; conditions: for elevation in thresholds to the three seizure endpoints: intranasal 1 mg/kg, compared with allopregnanolone 16 mg/kg; for effect on seizure threshold parameters: Example 2
Procedure: (§1) The thresholds for various behavioral seizure stages induced by the PTZ and bicuculine were determined by infusing the convulsant drugs via a 27-gauge, 0.75-inch “butterfly” needle inserted into the lateral tail vein. PTZ (10 mg/ml) and bicuculline (0.1 mg/ml) were infused IV at a constant rate of 0.5 ml/min using a 5-ml syringe (BD Biosciences, Franklin Lakes, N.J.) mounted on an infusion pump (Model ‘11’ Plus Syringe Pump; Harvard Apparatus, Holliston, Mass.). The syringe was connected to the needle by polyethylene tubing. The infusion was stopped at 3 min or at the onset of tonic extension, whichever occurred first. The time to occurrence (“infusion duration”) to the following endpoints from the start of the convulsant infusion were determined: (1) the first myoclonic jerk; (2) the onset of generalized clonus; and (3) the onset of tonic extension. Infusion duration values represent the time from the start of the convulsant infusion to the onset of the endpoint. The threshold value (mg/kg) for each endpoint was determined according to the following formula: (infusion duration [s]×infusion rate [ml/min]×convulant concentration [10 mg/ml or 0.1 mg/ml]×1000)/(60 s×body weight of mouse [g]).

[3] = system: bicuculline-induced seizures (seizure threshold); experiment: intravenous bicuculline threshold test; format: in vivo, mice; conditions: intranasal 16 mg/kg; 10 min
Procedure: as §1

[4] = plasma pharmacokinetics after intranasal or intramuscular dosing
Procedure: Allopregnanolone (16 mg/mL in 40% Captisol® in 0.9% saline) was administered intranasally at a total dose of 10 mg/kg. 2-3 microliters of solution was administered 3-5 times to each nostril (6-10 times total) over a period of 3.5 min. Allopregnanolone (6 mg/mL in 24% Captisol® in 0.9% saline) was administered intramuscularly at a total dose of 12 mg/kg. Time course of plasma levels of allopregnanolone following intranasal allopregnanolone (10 mg/kg) and intramuscular allopregnanolone (12 mg/kg) was monitored. At various times after administration, trunk blood was collected in chilled heparinized tubes. In some cases, blood was collected by retro-orbital puncture. Plasma was separated and assayed for allopregnanolone as described in Zolkowska D. et al., Epilepsia 2018 October; 59 Suppl 2:220-227.
At various times after intranasal administration, trunk blood samples were collected into chilled tubes. Brains were removed, separated into 3 sections (olfactory bulb, forebrain with midbrain, cerebellum with attached pons and medulla) and fast-frozen on dry ice. Blood was centrifuged at 1500 RCF for 10 min to separate the plasma. Brain and plasma samples were stored at −80° C. until processing. Plasma and brain samples were analyzed for allopregnanolone as described in Zolkowska et al (2018). The lower limit of quantification in plasma is 2.5 ng/ml.

PTZ-induced seizures = experiment: maximal PTZ seizure test; format: in vivo, mice
Procedure: Solutions of allopregnanolone (5α,3α-P) (15 mg/ml) were prepared in 40% sulfobutylether-β-cyclodextrin sodium salt in 0.9% saline. Seizures were induced in mice with pentylenetetrazol (PTZ; […] IP). 5α,3α-P solution (6 and 10 mg/kg) or vehicle was administered intranasally 5, 10 and 15 min prior to administration of the PTZ. […] The times to onset of myoclonic body twitches and clonic and tonic seizures were recorded. 5α,3α-P was considered to have antiseizure activity if it delayed the onset of seizure signs in comparison with the time of their occurrence in vehicle-treated animals.
The times to occurrence of the 3 seizure signs as in the timed intravenous PTZ seizure test were recorded. Allopregnanolone (10 mg/kg) or vehicle was administered intranasally 10 min prior to the PTZ injection.

[5] = brain region pharmacokinetics after intranasal dosing
[6] = human; cited from earlier work
[7] = even when solubilized with sulfobutyl ether β-cyclodextrin, sodium salt; cited from earlier work
righting reflex of mice = experiment: loss of righting reflex test; format: in vivo; conditions: for loss of righting reflex (sedation), in words: 10 min to 30 min after administration
Procedure: Time course of loss of righting reflex following intranasal allopregnanolone (16 mg/kg) and intramuscular allopregnanolone (16 mg/kg). Loss of righting reflex is a nonnoxious behavioral paradigm that indicates loss of consciousness (hypnosis). […] Intranasal delivery of alloprepregnanolone according to the methods described herein avoids the adverse effects on behavior associated with intramuscular bolus administration.
For the test, the mouse was placed on its back on a tabletop.

[8] = cited from earlier work
[9] = mouse, plasma, inhaled or intranasal, 10 mg/kg
[10] = intranasal 10 mg/kg, 10 min before PTZ 80 mg/kg IP
[11] = mouse, olfactory bulb, inhaled or intranasal, 10 mg/kg
[12] = intranasal 16 mg/kg, 10 min after dosing

For `CCC(=O)O[C@]1(C(=O)SCF)[C@H](C)C[C@H]2[C@@H]3C[C@H](F)C4=CC(=O)C=C[C@]4(C)[C@@]3(F)[C@@H](O)C[C@@]21C` [fluticasone propionate], the systemic availability [1] is given as “negligible”.
For `CC1(C)O[C@@H]2C[C@H]3[C@@H]4C[C@H](F)C5=CC(=O)C=C[C@]5(C)[C@H]4[C@@H](O)C[C@]3(C)[C@]2(C(=O)CO)O1` [flunisolide], the systemic availability [1] is listed as “substantial”.
In the case of `Cc1ncc2n1-c1ccc(Cl)cc1C(c1ccccc1F)=NC2` [midazolam], the “animals that fell from the grid” value (motor function of mice) is reported as “all”, the “motor function in the horizontal screen test, in words” value (shortened to “motor function”) (motor function of mice) is reported as “dramatically impair motor function” and the “elevation in thresholds to the three seizure endpoints” value [2] is reported as “comparable elevations”.
With `CN1C(=O)CN=C(c2ccccc2)c2cc(Cl)ccc21` [diazepam] the “animals that fell from the grid” value (motor function of mice) was “all”, the “motor function” value (motor function of mice) was “dramatically impair motor function” and the “elevation in thresholds to the three seizure endpoints” value [2] was “comparable elevations”.
For `CC(=O)[C@H]1CC[C@H]2[C@@H]3CC[C@H]4C[C@H](O)CC[C@]4(C)[C@H]3CC[C@]12C` [allopregnanolone, 3α-hydroxy-5α-pregnan-20-one], the “ratio of threshold, drug to vehicle: tonic extension” value [3] was 1.5, the “time therapeutic levels are maintained” value ([4]; intramuscular) was “about 2 hours” and the “time by which plasma levels taper off” value ([4]; intramuscular 12 mg/kg) was “about 4 hours”. For the same compound, the “time therapeutically meaningful blood levels are maintained” value ([4]; intranasal) was “up to 8 hours”, the “time plasma levels are sustained” value ([4]; intranasal 10 mg/kg) was “up to 8 hours” and the “true Cmax (time)” value ([4]; intranasal 10 mg/kg, likely value) was less than 5 min. The Cmax [4, 9] was 3500 ng/mL, the Tmax [4, 9] was 1 min and the half-life ([4]; mouse, plasma, inhaled or intranasal, 10 mg/kg, plasma initial phase t1/2, intranasal 10 mg/kg, first 15 min) was 4.9 min. For the same compound, the half-life ([4]; mouse, plasma, inhaled or intranasal, 10 mg/kg, plasma t1/2 (overall curve), intranasal 10 mg/kg) was 49 min, the “delay in seizure signs” value (PTZ-induced seizures; Example 1, administered 15 min before PTZ, compared with 5 min) was “less active” and the “effect on time to onset of seizure signs” value (PTZ-induced seizures; Example 1, intranasal 6 mg/kg) was “delayed the time to onset of all seizure signs”. The “protection from tonic hind limb extension and mortality” value (PTZ-induced seizures; Example 1, intranasal 10 mg/kg) was “some animals were protected”, the “ratio of latencies, drug to vehicle: clonus” value (PTZ-induced seizures; [10]) was 1.5 and the “ratio of latencies, drug to vehicle: myoclonic twitch” value (PTZ-induced seizures; [10]) was 1.3. The “ratio of latencies, drug to vehicle: tonic extension” value (PTZ-induced seizures; [10]) was 4.4, the “animals that failed to exhibit tonic extension” value (PTZ-induced seizures; intranasal 10 mg/kg, of the 14 animals tested) was 5 and the “olfactory bulb levels compared with plasma levels” value ([5]; intranasal) was “substantially higher than the plasma levels”. For the same compound, the “olfactory bulb concentration relative to whole brain” value ([5]; intranasal 16 mg/kg, mean of 1, 2, 5 and 10 min) was 10 fold, the Cmax ([5]; mouse, forebrain, cerebellum, inhaled or intranasal, 10 mg/kg) was 600 to 700 ng/g and the Cmax [5, 11] was 16000 ng/g. For the same compound, the Tmax [5, 11] was 1 min, the t1/2 [6] was 35 min and the oral bioavailability [7] was “not orally bioavailable”. For the same compound, the “animals that did not fall from the grid” value (motor function of mice; intranasal 16 mg/kg) was 5 of 8, the “area under mean holding time versus time curve, compared with untreated (naive) animals” value (motor function of mice; intranasal 16 mg/kg) was “not significantly different” and the “motor function” value (motor function of mice) was “fails to cause substantial sedation or motor impairment”. The “animals exhibiting loss of righting reflex” value (righting reflex of mice; intramuscular 16 mg/kg) was 9 of 10, the “loss of righting reflex (sedation), in words” value (righting reflex of mice; intramuscular 16 mg/kg) was “substantial loss of righting reflex; also recorded: profound sedation” and the “loss of righting reflex (sedation), in words” value (righting reflex of mice; intramuscular 16 mg/kg, listed as Allopregnanolone) was “loss of righting reflex in a high proportion of mice”. For the same compound, the “loss of righting reflex (sedation/general anesthesia), in words” value (righting reflex of mice; intranasal 16 mg/kg) was “not associated with substantial sedation/general anesthesia; also recorded: only minimal loss of righting reflex”, the “animals exhibiting loss of righting reflex” value (righting reflex of mice; intranasal 16 mg/kg, 60 min observation) was 2 of 25 and the “loss of righting reflex (sedation/general anesthesia), in words” value (righting reflex of mice; intranasal 16 mg/kg, listed as Allopregnanolone) was “loss of righting reflex in only a small proportion of animal”. For the same compound, the “effect on seizure threshold parameters” value ([2]; intranasal 16 mg/kg, 10 minutes) was “large and statistically significant increase”, the “effect on seizure threshold parameters” value ([2]; intranasal 16 mg/kg, 1 hour) was “diminishes” and the “effect on seizure threshold parameters” value ([2]; intranasal 16 mg/kg, 8 hours) was “absent; also recorded: no substantial elevation”. The “change in tonic extension threshold versus vehicle” value ([2]; intranasal 16 mg/kg, 10 min) was “statistically significant increase”, the “ratio of mean threshold values, drug to vehicle: clonus” value [2, 12] was 1.4 and the “ratio of mean threshold values, drug to vehicle: myoclonic twitch” value [2, 12] was 1.3. For the same compound, the “ratio of mean threshold values, drug to vehicle: tonic extension” value [2, 12] was 2.7, the “ratio of mean thresholds, drug to vehicle: tonic extension” value (“ratio of mean thresholds, drug” below) ([2]; intranasal 16 mg/kg, 15 min (maximum elevation)) was 5.3 and the “ratio of mean thresholds, drug” value ([2]; intranasal 16 mg/kg, 60 min) was 1.3. The “ratio of mean thresholds, drug” value ([2]; intranasal 16 mg/kg, 360 min) was 1.1, the “dose adjusted Cmax” value ([8]; intramuscular, prior study) was 2150 ng/mL and the Tmax ([8]; intramuscular) was 60 min. The “plasma concentration half-time (t1/2)” value ([8]; mice) was 16 min.
